Data from patent US11440923B2, “Substituted macrocyclic indole derivatives” (Bayer Aktiengesellschaft, priority 2017, dated 2022).
pIC50, pKd: −log10 of the molar value. Where a name gives a salt, the structure may show the parent alone. Read-outs that look alike come from different tables or passages of the source.

What was measured:
[1] = biological target: MCL1 protein / biotinylated BIM BH3 peptide in RKO cells (Homo sapiens (Human), UniProt Q07820); assay: PIxEL: protein-protein interaction in permeabilized cells by ELISA (Assay 5); format: cell-based; details: PIxEL IC50 (median)
How it was run: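 Digitonin (0.002%)-permeabilized RKO cells in MEB buffer pH 7.5 were treated with compound (3-fold series, top 30 μM) plus 0.2 μM biotin-BIM BH3 peptide for 1 h at room temperature. Lysates were captured on anti-MCL1 ELISA plates and bound peptide read by streptavidin-HRP luminescence. IC50 came from signal normalized to no-compound and no-cell controls.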

MV-4-11 cells = assay: Antiproliferation assay MV-4-11 (Assay 7); format: cell-based
Description: Assessment of the Anti-Proliferative Effect of Compounds in Different Cell Lines
The impact of compounds on the proliferation of different cell lines was assessed using the CellTiter-Glo® Luminescent Cell Viability reagent from Promega (G7573).
In parallel, cells were plated in a reference (day 0) plate for time zero determination. Cells were incubated in a humidified incubator at 37° C. overnight.
Rim wells were excluded. The cells were incubated for 72 h hours in a humidified incubator at 37° C. The day 0 plate was measured by adding 30 μL/well of CTG solution (CellTiter-Glo® Luminescent Cell Viability reagent, Promega G7573) to time zero wells in the reference plate followed by a 10 minutes incubation and luminescence reading at 0.1 ms. using the PHERAstar FS microplate reader (BMG Labtech).
After 72 h incubation, the treated plates were measured in the same way as the day 0 plate mentioned above. The Bella DRC Master Sheet was used to calculate IC50s, with CI=day 0 values and C0=DMSO control values.

MCL-1 = MCL-1 (Homo sapiens (Human), UniProt Q07820, K194A/K197A/R201A); assay: Protein-compound interaction assay (SPR assay, Assay 9); format: binding; details: for pKd: KD (geometric mean); for koff: read-out: koff (geometric mean), SPR, 25° C.; for kon: read-out: kon (geometric mean), SPR, 25° C.
Text: Assay 9 Protein-Compound Interaction Assay (SPR Assay)
The ability of the compounds described in this invention to bind to MCL-1 may be determined using surface plasmon resonance (SPR). This allows for the quantification of binding in terms of the equilibrium dissociation constant (KD [M]), as well as association and dissociation rate constants (kon [1/Ms] and koff [1/s], respectively). The measurements may be performed using Biacore® T200 or Biacore® S200 instruments (GE Healthcare).
Briefly, carboxymethylated dextran biosensor chips (Series S Sensor Chip CMS, GE Healthcare) were activated with 1-ethyl-3-(3-dimethylaminopropyl)-carbodiimide hydrochloride (EDC) and N-hydroxysuccinimide (NHS) according to the supplier's instructions. MBP-MCL-1 was diluted in 1×PBS-P+ (GE Healthcare) and injected on the activated chip surface. Subsequently, a solution of 1 M ethanolamine-HCl (GE Healthcare) was injected to block unreacted groups, resulting in approximately 400-2500 response units (RU) of immobilized protein. A reference surface was generated by treatment with NHS-EDC and ethanolamine-HCl. […] Compounds were injected for 60 s followed by a dissociation time of up to 1000 s.
The double-referenced sensorgrams were fit to a simple reversible Langmuir 1:1 reaction mechanism as implemented in the Biacore® T200 and S200 evaluation software (T200 evaluation software version 2.0 and S200 evaluation software version 1.0, GE Healthcare).

SNU-389 cells = assay: Antiproliferation assay SNU-389 (Assay 7); format: cell-based; details: 72 h, read-out: Antiproli SNU-389 IC50
How it was run: (§1)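 Anti-proliferative effect was measured by CellTiter-Glo ATP luminescence after 72 h compound exposure at 37° C, following overnight plating. IC50s were derived using a parallel time-zero plate and DMSO-treated controls as reference points.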

SK-MEL-2 cells = assay: Antiproliferation assay SK-MEL-2 (Assay 7); format: cell-based; details: Homo sapiens, read-out: Antiproli SK-MEL-2 IC50 median
How it was run: as §1

A-431 cells = assay: Antiproliferation assay A-431 (Assay 7); format: cell-based; details: Homo sapiens, read-out: Antiproli A-431 IC50 median
How it was run: as §1

DMS-114 cells = assay: Antiproliferation assay DMS-114 (Assay 7); format: cell-based; details: Homo sapiens, read-out: Antiproli DM-S114 IC50 median
How it was run: as §1

[2] = Homo sapiens, MV4-11, 72 h, CellTiter-Glo, read-out: Antiproli MV-4-11 IC50 median
[3] = DMS-114 cells, 72 h, CellTiter-Glo
[4] = read-out: Antiproli MV-4-11 IC50 median; 72 h, CellTiter-Glo

MCL-1, sequence (Q07820 whole entry K194A/K197A/R201A, looked up): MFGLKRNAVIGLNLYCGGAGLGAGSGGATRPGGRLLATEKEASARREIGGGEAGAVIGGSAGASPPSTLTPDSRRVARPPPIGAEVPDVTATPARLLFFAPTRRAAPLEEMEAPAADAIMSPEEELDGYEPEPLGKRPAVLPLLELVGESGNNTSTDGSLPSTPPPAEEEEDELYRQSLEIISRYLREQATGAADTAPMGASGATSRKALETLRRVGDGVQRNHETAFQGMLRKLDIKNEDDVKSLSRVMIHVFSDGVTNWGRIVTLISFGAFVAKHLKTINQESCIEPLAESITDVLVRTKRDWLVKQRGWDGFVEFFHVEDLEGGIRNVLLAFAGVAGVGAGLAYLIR
MCL1 protein / biotinylated BIM BH3 peptide in RKO cells, sequence (Q07820 whole entry): as the sequence (Q07820 whole entry K194A/K197A/R201A, looked up) above, with A194K, A197K, A201R counted along it

Row | Compound | pIC50 [1] | pIC50 (MV-4-11 cells; [2]) | pKd (MCL-1; SPR, 25° C.) | koff (MCL-1) [s⁻¹] | kon (MCL-1) [M⁻¹ s⁻¹] | pIC50 (SNU-389 cells; CellTiter-Glo) | pIC50 (SK-MEL-2 cells; SK-MEL-2, 72 h, CellTiter-Glo) | pIC50 (A-431 cells; A-431, 72 h, CellTiter-Glo) | pIC50 (DMS-114 cells; [3]) | pIC50 (SNU-389 cells) | pIC50 (SK-MEL-2 cells; SK-MEL-2, 72 h) | pIC50 (A-431 cells; A-431, 72 h) | pIC50 (DMS-114 cells; DMS-114, 72 h) | pIC50 (MV-4-11 cells; 72 h, CellTiter-Glo; read-out: Antiproli MV-4-11 IC50 median) | IC50 ([1]; uM) [µM] | pIC50 (MV-4-11 cells; [4]) | kon (geometric mean) (MCL-1; SPR, 25° C.) | koff (geometric mean) (MCL-1; SPR, 25° C.)
1 | CCc1c2c(nn1C)C(CCN1CCOCC1)OCCCCn1c(C(=O)O)c(CCCOc3cccc4ccccc34)c3ccc(F)c-2c31 (racemic) [Example 10, (rac)-3-ethyl-4-fluoro-2-methyl-15-[2-(morpholin-4-yl)ethyl]-7-[3-(naphthalen-1-yloxy)propyl]-2,10,11,12,13,15-hexahydropyrazolo[4′,3′:9,10][1,6]oxazacycloundecino[8,7,6-hi]indole-8-carboxylic Acid] | 6.49 | 6.96 | 8.96 | 0.01 | 9e+06 |  |  |  |  |  |  |  |  |  |  |  |  | 
2 | CCc1c2c(nn1C)C(CCN1CCOCC1)OCCCCn1c(C(=O)O)c(CCCOc3cccc4cc(F)ccc34)c3ccc(F)c-2c31 (single isomer, unassigned; enantiomer 1) [Example 50, (+)-3-ethyl-4-fluoro-7-{3-[(6-fluoronaphthalen-1-yl)oxy]propyl}-2-methyl-15-[2-(morpholin-4-yl)ethyl]-2,10,11,12,13,15-hexahydropyrazolo[4′,3′:9,10][1,6]oxazacycloundecino[8,7,6-hi]indole-8-carboxylic Acid (Enantiomer 1)] | 7.43 |  | 9.44 | 0.009 | 2.5e+07 | 6.34 | 6.30 | 6.47 | 6.82 |  |  |  |  |  |  |  |  | 
3 | CCc1c2c(nn1C)C(CCC(C)(C)O)OCCCCn1c(C(=O)O)c(CCCOc3cccc4cc(F)ccc34)c3ccc(Cl)c-2c31 (single isomer, unassigned; enantiomer 1) [Example 75, (+)-4-chloro-3-ethyl-7-{3-[(6-fluoronaphthalen-1-yl)oxy]propyl}-15-(3-hydroxy-3-methylbutyl)-2-methyl-2,10,11,12,13,15-hexahydropyrazolo[4′,3′:9,10][1,6]oxazacycloundecino[8,7,6-hi]indole-8-carboxylic Acid—N-ethylethanamine Salt (Enantiomer 1)] | 7.56 |  | 9.62 | 0.0022 | 9e+06 | 6.88 | 6.77 | 6.87 | 7.11 |  |  |  |  |  |  |  |  | 
4 | Cc1c2c(nn1C)C(CCN1CCOCC1)OCCCCn1c(C(=O)O)c(CCCOc3cccc4cc(F)ccc34)c3ccc(F)c-2c31 (single isomer, unassigned; enantiomer 1) [Example 20, 4-fluoro-7-{3-[(6-fluoronaphthalen-1-yl)oxy]propyl}-2,3-dimethyl-15-[2-(morpholin-4-yl)ethyl]-2,10,11,12,13,15-hexahydropyrazolo[4′,3′:9,10][1,6]oxazacycloundecino[8,7,6-hi]indole-8-carboxylic Acid—N-ethylethanamine (Enantiomer 1)] | 7.00 |  | 9.25 | 0.018 | 3.2e+07 |  |  |  |  | 6.36 | 6.22 | 6.34 | 6.65 |  |  |  |  | 
5 | Cc1c2c(nn1C)C(CCN1CCOCC1)OCCCCn1c(C(=O)O)c(CCCOc3cccc4ccccc34)c3ccc(Cl)c-2c31 (single isomer, unassigned; enantiomer 1) [Example 14, 4-chloro-2,3-dimethyl-15-[2-(morpholin-4-yl)ethyl]-7-{3-[(naphthalen-1-yl)oxy]propyl}-2,10,11,12,13,15-hexahydropyrazolo[4′,3′:9,10][1,6]oxazacycloundecino[8,7,6-hi]indole-8-carboxylic Acid (Enantiomer 1)] | 7.08 |  | 8.89 | 0.031 | 2.3e+07 | 6.74 |  |  | 6.82 |  |  |  |  | 7.42 |  |  |  | 
6 | CCc1c2c(nn1C)C(CCN1CCOCC1)OCCCCn1c(C(=O)O)c(CCCOc3cccc4ccccc34)c3ccc(F)c-2c31 (single isomer, unassigned; enantiomer 1) [Example 11, 3-ethyl-4-fluoro-2-methyl-15-[2-(morpholin-4-yl)ethyl]-7-{3-[(naphthalen-1-yl)oxy]propyl}-2,10,11,12,13,15-hexahydropyrazolo[4′,3′:9,10][1,6]oxazacycloundecino[8,7,6-hi]indole-8-carboxylic Acid—N-ethylethanamine Salt (Enantiomer 1)] |  |  | 9.21 | 0.0038 |  |  |  |  |  |  |  |  |  |  | > 30 | 6.84 | 6.2 E6 1/M 1/s | 
7 | CCc1c2c(nn1C)C(CCN1CCOCC1)OCCCCn1c(C(=O)O)c(CCCOc3cccc4ccccc34)c3ccc(F)c-2c31 (single isomer, unassigned; enantiomer 2) [Example 12, 3-ethyl-4-fluoro-2-methyl-15-[2-(morpholin-4-yl)ethyl]-7-{3-[(naphthalen-1-yl)oxy]propyl}-2,10,11,12,13,15-hexahydropyrazolo[4′,3′:9,10][1,6]oxazacycloundecino[8,7,6-hi]indole-8-carboxylic Acid—N-ethylethanamine Salt (Enantiomer 2)] | 4.71 |  | 7.66 |  |  |  |  |  |  |  |  |  |  |  |  | 4.84 | 1.5 E5 1/M 1/s | 3.4 E−3 1/s
8 | CCc1c2c(nn1C)C(CCN1CC(F)(F)C1)OCCCCn1c(C(=O)O)c(CCCOc3cccc4cc(F)ccc34)c3ccc(Cl)c-2c31 (single isomer, unassigned; (+)) [Example 78, (+)-4-chloro-15-[2-(3,3-difluoroazetidin-1-yl)ethyl]-3-ethyl-7-{3-[(6-fluoronaphthalen-1-yl)oxy]propyl}-2-methyl-2,10,11,12,13,15-hexahydropyrazolo[4′,3′:9,10][1,6]oxazacycloundecino[8,7,6-hi]indole-8-carboxylic Acid—N-ethylethanamine Salt] | 7.36 |  | 9.48 | 0.0012 | 3.5e+06 | 6.82 | 6.71 | 6.90 | 7.05 |  |  |  |  |  |  |  |  | 
9 | CCc1c2c(nn1C)C(CCC1CCOCC1)OCCCCn1c(C(=O)O)c(CCCOc3cccc4cc(F)ccc34)c3ccc(Cl)c-2c31 (single isomer, unassigned; enantiomer 1) [Example 63, (+)-4-chloro-3-ethyl-7-{3-[(6-fluoronaphthalen-1-yl)oxy]propyl}-2-methyl-15-[2-(oxan-4-yl)ethyl]-2,10,11,12,13,15-hexahydropyrazolo[4′,3′:9,10][1,6]oxazacycloundecino[8,7,6-hi]indole-8-carboxylic Acid—N-ethylethanamine Salt (Enantiomer 1)] | 7.85 |  | 8.85 | 0.0016 | 1.1e+06 |  |  |  |  | 6.74 | 6.49 | 6.57 | 6.81 |  |  |  |  | 
10 | Cc1c2c(nn1C)C(CCN1CCOCC1)OCCCCn1c(C(=O)O)c(CCCOc3cccc4cc(F)ccc34)c3ccc(Cl)c-2c31 (racemic) [Example 16, (rac)-4-chloro-7-{3-[(6-fluoronaphthalen-1-yl)oxy]propyl}-2,3-dimethyl-15-[2-(morpholin-4-yl)ethyl]-2,10,11,12,13,15-hexahydropyrazolo[4′,3′:9,10][1,6]oxazacycloundecino[8,7,6-hi]indole-8-carboxylic Acid] |  | 7.46 |  |  |  | 6.93 |  |  |  |  |  |  |  |  |  |  |  | 
